Where a name gives a salt, the structure may show the parent alone.
System: MOG-induced experimental allergic encephalomyelitis (EAE) murine model
Test: MOG-induced experimental allergic encephalomyelitis (EAE) murine model, clinical score 0-15
Assay type: in vivo, Mouse/C57BL/6J
Conditions: dimethyl fumarate in therapeutic dose, 49 mg/kg PO bi-daily, Days 0-35 (Group 11)
Text: FIG. 1: Combination of MabionCD20DP and teriflunomide. MabionCD20DP and teriflunomide have been administered to an experimental allergic encephalomyelitis (EAE) mouse model. The MOG (myelin oligodendrocyte glycoprotein)-induced EAE murine model consists of a sensitization period, induced by the single SC injection of MOG emulsified in CFA (complete Freund's adjuvant) on Day 0, followed by IP supplemental immunostimulation with PT carried out once at the time of EAE induction and once again 48 hours later.
FIG. 2: Combination of MabionCD20DP and dimethyl fumarate. MabionCD20DP and dimethyl fumarate have been administered to an experimental allergic encephalomyelitis (EAE) mouse model. […]
Throughout the 36-day study, general clinical examinations were performed and recorded if any unexpected abnormalities are observed.
Body weight loss can be the first sign of disease initiation, while a sudden marked weight gain tends to accompany remission of EAE symptoms. Therefore, determination of individual body weights of animals was made shortly before EAE induction on Study Day 0 and was monitored on a daily basis throughout the 35-day observation period. […]

For `COC(=O)/C=C/C(=O)OC` [dimethyl fumarate], the “disease parameters (EAE), FIG. 2” value was “reduction of the disease parameters”.

Source: patent publication US20220213210A1, “COMBINATION THERAPY OF MULTIPLE SCLEROSIS COMPRISING A CD20 LIGAND” (MABION SA, priority 2017, published 2022)
